Experiments:
PHHs-NL-Mφ co-cultures = test: Alamar Blue cell viability, PHHs-NL-Mφ co-cultures; type: cell-based, human; settings: 24 hours treatment, PHHs-NL-Mφ co-cultures vs PHHs monocultures, FIG. 5C
Method: (§1) PHHs monocultures, PHHs-PHKCs co-cultures (FIG. 5A), PHHs-hPSC-KCs co-cultures (FIG. 5B) and PHHs-hPSC-Mac co-cultures (FIG. 5C) treated with LPS (solid lines) or left untreated (dashed lines) were exposed to Acetaminophen (APAP) 16 hours after LPS treatment. 24 hours after addition of the drug, cell viability was assayed using Alamar Blue. Cell viability is expressed as percentage of viable cells compared to vehicle control (DMSO). Data are presented as mean±s.d (n=3). * indicates statistically significant differences between LPS-activated monoculture and co-culture; # indicate statistically significant differences between non-activated monoculture and co-culture (p<0.05).
(§2) Previous reports have shown the suppression of CYP expression and activity in human and rat hepatocytes when co-cultured with Kupffer cells. […] Therefore, it was analyzed if differences could be identified between PHHs-PHKCs co-cultures and PHHs monocultures in toxicity responses to paradigm hepatotoxicants, and if this difference could be recapitulated in PHHs-hPSC-KCs or PHHs-hPSC-Mac co-cultures. The monocultures and co-cultures were treated with the paradigm hepatotoxicant acetaminophen for 24 hours, and cell viability was measured using Alamar Blue assay. Cell viability was quantified as percentage of […] compared to vehicle control (DMSO).

PHHs-PHKCs co-cultures = test: Alamar Blue cell viability, PHHs-PHKCs co-cultures; type: cell-based, human; settings: 24 hours treatment, PHHs-PHKCs co-cultures vs PHHs monocultures, FIG. 5A
Method: as §1, §2

[1] = test system: PHHs-hPSC-KCs co-cultures; test: Alamar Blue cell viability, PHHs-hPSC-KCs co-cultures; type: cell-based, human; settings: 24 hours treatment, PHHs-hPSC-KCs co-cultures vs PHHs monocultures, FIG. 5B
Method: as §1, §2

[2] = test system: primary human hepatocytes (PHHs); test: cytokine production (ELISA) upon LPS activation, PHHs; type: cell-based
Method: (§3) FIG. 3A are phase contrast images showing morphological changes in hPSC-KCs (upper panel) and NL-Mφ (lower panel) following LPS treatment. Scale bar: 100 μm. […] Supernatant from cell cultures were collected 16 hours after LPS treatment and cytokine production was measured using ELISA. IL-6 and TNF4α (after LPS treatment) production was not detected in PHHs. TNF4α production was not detected in NL-Mφ before LPS treatment. Data are presented after normalization to cell numbers and the bars represent mean±s.d. (n=3). Dashed lines represent fold differences between cytokine production before and after LPS treatment (folds are indicated on top of the dashed lines). Solid lines represent p<0.05 (two-tailed paired t-test). […] No significant differences were observed between IL-6 levels in hPSC-KCs and PHKCs in terms of basal levels (no LPS treatment) and LPS-induced levels. The fold increase in TNF4α production in hPSC-KCs (33 fold) was similar to the fold increase in PHKCs (35 fold). […] It has been reported that Kupffer cells show a lower extent of cytokine production upon cytokine stimulation.
(§4) For activation of hPSC-KCs to examine cytokine production, lipopolysaccharide (LPS) was added to the culture medium during the last 16 hours of culture. Medium was collected at the end of the incubation period and morphological changes and cytokine production upon LPS activation was analyzed. […]

[3] = test system: PHKCs (primary human Kupffer cells); test: cytokine production (ELISA) upon LPS activation, PHKCs; type: cell-based; settings: LPS during last 16 hours of culture
Method: as §3, §4

hPSC-KCs = test: cytokine production (ELISA) and morphology upon LPS activation, hPSC-KCs; type: cell-based, human
Method: as §3
For activation of hPSC-KCs to examine cytokine production, lipopolysaccharide (LPS) was added to the culture medium during the last 16 hours of culture. Medium was collected at the end of the incubation period and morphological changes and cytokine production upon LPS activation was analyzed. […] The fold increase in TNF4α production in hPSC-KCs (33 fold) was similar to the fold increase in PHKCs (35 fold) (FIG. 3C).

[4] = test system: NL-Mφ (non-liver macrophages); test: cytokine production (ELISA) and morphology upon LPS activation, NL-Mφ; type: cell-based, human
Method: as §3, §4

| Compound | cell death compared to PHHs monocultures (PHHs-NL-Mφ co-cultures) | cell death compared to monoculture controls (PHHs-PHKCs co-cultures) | cell death compared to monoculture controls [1] | IL-6 production ([2]; FIG. 3B) | TNF4α production ([2]; upon LPS activation) | fold induction of IL-6 production ([3]; FIG. 3B) | fold increase in TNF4α production ([3]; FIG. 3C) | morphological changes (hPSC-KCs; LPS activation, FIG. 3A) | fold induction of IL-6 production (hPSC-KCs; LPS during last 16 hours of culture, FIG. 3B) | fold increase in TNF4α production (hPSC-KCs; LPS during last 16 hours of culture, FIG. 3C) | levels of cytokines (IL-6, TNF4α) ([4]; NL-Mφ compared to PHKCs and hPSC-KCs, FIG. 3B and 3C) | morphological changes ([4]; NL-Mφ, LPS activation, FIG. 3A) |
| --- | --- | --- | --- | --- | --- | --- | --- | --- | --- | --- | --- | --- |
| CC(=O)Nc1ccc(O)cc1 [acetaminophen] | No difference in cell death | higher cell death | higher cell death |  |  |  |  |  |  |  |  |  |
| lipopolysaccharide [LPS] |  |  |  | below detectable levels | below detectable levels | 25 fold | 35 fold | from round to flat and spread cells | in the same range as that of the PHKCs | 33 fold | much higher levels | from round to flat and spread cells |

— patent US20190352610A1, “METHODS OF GENERATING HEPATIC MACROPHAGES AND USES THEREOF” (AGENCY FOR SCIENCE, TECHNOLOGY AND RESEARCH, priority 2017, published 2019)
